Measured values reported in patent US20090124587A1, “METHODS FOR TREATING CANCER USING 17alpha-HYDROXYLASE/C17,20-LYASE INHIBITORS” (priority 2007, published 2009).
Read-outs that look alike come from different tables or passages of the source.

Assay: Food effect PK study, two single oral 1000 mg doses of abiraterone acetate, fed (high fat) vs fasted
Format: in vivo, human
Details: for clearance: read-out: Cl F obs (converted); for Vd/F: read-out: Vz F obs; for concentration at 1.017 h: sample time 1.017; for concentration at 6 h: sample time 6.000; for concentration at 2 h: sample time 2.000; for concentration at 4 h: sample time 4.000; for concentration at 8.033 h: sample time 8.033; for concentration at 24 h: sample time 24.000; for concentration at 48.083 h: sample time 48.083
Method: To measure the amount of abiraterone and abiraterone acetate in the samples, these compounds were extracted from 100 uL human plasma using solid phase extraction (SPE) with cation mixed-mode polymer cartridges. Extracts were evaporated to dryness before reconstitution and analysis. Chromatography was carried out using a Luna™ C5 column (5 μm, 50 mm×2.1 mm id) with a gradient mobile phase consisting of 10 mM ammonium acetate and 2% propan-2-ol in acetonitrile. The flow rate was 0.2 mL/min and the run time 10.5 minutes. Abiraterone and abiraterone acetate were ionized using the electrospray interface in positive ion mode. Detection of analytes was via tandem mass spectrometry (MS/MS) in the multiple reaction monitoring (MRM) mode.
PK modeling was conducted using a non-compartmental model, extra vascular input for plasma with WinNonLin Software®. Pharmacokinetic parameters estimated in the model include:
Based on the above results, the PK parameters for a single dose of 1000 mg/day of abiraterone acetate were further studied in the 3 subjects who were administered the 1000 mg/day dose and in 3 additional subjects. Two single oral doses (1000 mg) of abiraterone acetate were administered separately, one concomitantly with food of high fat content and one in fasting state. The first single dose was administered on day −9 with PK blood samples being taken at 1, 2, 4, 6, 8, 24, 48 and 72 hours post dose. The second single dose was administered on day −3 with PK blood samples being taken at 1, 2, 4, 6, 8, 24 and 48 hours post dose for analysis.

[1] = human, plasma, oral, 1000 mg, Patient 19, 1000 mg, Fasted
[2] = human, plasma, oral, 1000 mg, Patient 19, 1000 mg, Fed
[3] = human, plasma, oral, 1000 mg, Patient 19, Fasted
[4] = human, plasma, oral, 1000 mg, Patient 19, Fed
[5] = human, plasma, oral, 1000 mg, Patient 20, 1000 mg, Fasted
[6] = human, plasma, oral, 1000 mg, Patient 20, 1000 mg, Fed
[7] = human, plasma, oral, 1000 mg, Patient 20, Fasted
[8] = human, plasma, oral, 1000 mg, Patient 20, Fed
[9] = human, plasma, oral, 1000 mg, Patient 21, 1000 mg, Fasted
[10] = human, plasma, oral, 1000 mg, Patient 21, 1000 mg, Fed
[11] = human, plasma, oral, 1000 mg, Patient 21, Fasted
[12] = human, plasma, oral, 1000 mg, Patient 21, Fed
[13] = human, plasma, po, 1000 mg, mean, 1000 mg single oral dose, Fasted
[14] = human, plasma, po, 1000 mg, mean, 1000 mg single oral dose, Fed
[15] = mean, 1000 mg single oral dose, Fasted
[16] = mean, 1000 mg single oral dose, Fed

For `C[C@]12CC[C@H](O)CC1=CC[C@@H]1[C@@H]2CC[C@]2(C)C(c3cccnc3)=CC[C@@H]12` [Abiraterone], the concentration at 4.033 hr (human, plasma, oral, 1000 mg, Patient 15, Fed, sample time 4.033 hr) was 484 nM, the concentration at 6.083 hr (human, plasma, oral, 1000 mg, Patient 15, Fed, sample time 6.083 hr) was 1120 nM and the concentration at 8.067 hr (human, plasma, oral, 1000 mg, Patient 15, Fed, sample time 8.067 hr) was 512 nM. For the same compound, the concentration at 24.05 hr (human, plasma, oral, 1000 mg, Patient 15, Fed, sample time 24.050 hr) was 84.3 nM, the concentration at 46.05 hr (human, plasma, oral, 1000 mg, Patient 15, Fed, sample time 46.050 hr) was 18.1 nM and the clearance [1] was 12200 mL/min. It also gave a Vd/F [1] of 8490 L, a clearance [2] of 4900 mL/min and a Vd/F [2] of 4250 L. For the same compound, the AUC(0-inf) [3] was 3.91 µM·h, the AUC(0-t) [3] was 3.8 µM·h and the Cmax [3] was 432 nM. The Tmax [3] was 6 h, the concentration at 1.05 hr (human, plasma, oral, 1000 mg, Patient 19, Fasted, sample time 1.050 hr) was 0 nM and the concentration at 2.083 hr (human, plasma, oral, 1000 mg, Patient 19, Fasted, sample time 2.083 hr) was 71.9 nM. For the same compound, the concentration at 4.017 hr (human, plasma, oral, 1000 mg, Patient 19, Fasted, sample time 4.017 hr) was 334 nM, the concentration at 6 hr (human, plasma, oral, 1000 mg, Patient 19, Fasted, sample time 6.000 hr) was 432 nM and the concentration at 8.017 hr (human, plasma, oral, 1000 mg, Patient 19, Fasted, sample time 8.017 hr) was 177 nM. It also gave a concentration at 24.067 hr (human, plasma, oral, 1000 mg, Patient 19, Fasted, sample time 24.067 hr) of 21.6 nM, a concentration at 48.1 hr (human, plasma, oral, 1000 mg, Patient 19, Fasted, sample time 48.100 hr) of 9.1 nM and an AUC(0-inf) [4] of 9.73 µM·h. The AUC(0-t) [4] was 9.47 µM·h, the Cmax [4] was 1020 nM and the Tmax [4] was 6.13 h. For the same compound, the concentration at 0.967 hr (human, plasma, oral, 1000 mg, Patient 19, Fed, sample time 0.967 hr) was 0 nM, the concentration at 2.2 hr (human, plasma, oral, 1000 mg, Patient 19, Fed, sample time 2.200 hr) was 466 nM and the concentration at 3.933 hr (human, plasma, oral, 1000 mg, Patient 19, Fed, sample time 3.933 hr) was 973 nM. It also gave a concentration at 6.133 hr (human, plasma, oral, 1000 mg, Patient 19, Fed, sample time 6.133 hr) of 1020 nM, a concentration at 8 hr (human, plasma, oral, 1000 mg, Patient 19, Fed, sample time 8.000 hr) of 344 nM and a concentration at 23.717 hr (human, plasma, oral, 1000 mg, Patient 19, Fed, sample time 23.717 hr) of 63.6 nM. For the same compound, the concentration at 49.3 hr (human, plasma, oral, 1000 mg, Patient 19, Fed, sample time 49.300 hr) was 18 nM, the clearance [5] was 3680 mL/min and the Vd/F [5] was 4880 L. For the same compound, the clearance [6] was 2030 mL/min, the Vd/F [6] was 3210 L and the AUC(0-inf) [7] was 13 µM·h. It also gave an AUC(0-t) [7] of 12.1 µM·h, a Cmax [7] of 1700 nM and a Tmax [7] of 2.27 h. It also gave a concentration at 1.017 h [7] of 58.5 nM, a concentration at 2.267 h (human, plasma, oral, 1000 mg, Patient 20, Fasted, sample time 2.267) of 1700 nM and a concentration at 3.833 h (human, plasma, oral, 1000 mg, Patient 20, Fasted, sample time 3.833) of 1270 nM. The concentration at 6 h [7] was 976 nM, the concentration at 7.917 h (human, plasma, oral, 1000 mg, Patient 20, Fasted, sample time 7.917) was 256 nM and the concentration at 24.283 h (human, plasma, oral, 1000 mg, Patient 20, Fasted, sample time 24.283) was 118 nM. For the same compound, the concentration at 48.417 h (human, plasma, oral, 1000 mg, Patient 20, Fasted, sample time 48.417) was 40.8 nM, the AUC(0-inf) [8] was 23.5 µM·h and the AUC(0-t) [8] was 22.8 µM·h. For the same compound, the Cmax [8] was 1580 nM, the Tmax [8] was 8.03 h and the concentration at 1.017 h [8] was 32.2 nM. For the same compound, the concentration at 2 h [8] was 201 nM, the concentration at 4 h [8] was 422 nM and the concentration at 6 h [8] was 1400 nM. It also gave a concentration at 8.033 h [8] of 1580 nM, a concentration at 24 h [8] of 152 nM and a concentration at 47.517 h (human, plasma, oral, 1000 mg, Patient 20, Fed, sample time 47.517) of 55.4 nM. It also gave a concentration at 71.333 h (human, plasma, oral, 1000 mg, Patient 20, Fed, sample time 71.333) of 25.3 nM, a clearance [9] of 6610 mL/min and a Vd/F [9] of 7190 L. The clearance [10] was 6180 mL/min, the Vd/F [10] was 5180 L and the AUC(0-inf) [11] was 7.21 µM·h. It also gave an AUC(0-t) [11] of 6.93 µM·h, a Cmax [11] of 648 nM and a Tmax [11] of 2.17 h. The concentration at 1 h (human, plasma, oral, 1000 mg, Patient 21, Fasted, sample time 1.000) was 414 nM, the concentration at 2.167 h (human, plasma, oral, 1000 mg, Patient 21, Fasted, sample time 2.167) was 648 nM and the concentration at 4.15 h (human, plasma, oral, 1000 mg, Patient 21, Fasted, sample time 4.150) was 360 nM. For the same compound, the concentration at 6.117 h (human, plasma, oral, 1000 mg, Patient 21, Fasted, sample time 6.117) was 396 nM, the concentration at 8.05 h (human, plasma, oral, 1000 mg, Patient 21, Fasted, sample time 8.050) was 231 nM and the concentration at 24.333 h (human, plasma, oral, 1000 mg, Patient 21, Fasted, sample time 24.333) was 65.5 nM. For the same compound, the concentration at 48.083 h [11] was 16.4 nM, the concentration at 71.7 h (human, plasma, oral, 1000 mg, Patient 21, Fasted, sample time 71.700) was 15.2 nM and the AUC(0-inf) [12] was 7.71 µM·h. The AUC(0-t) [12] was 7.45 µM·h, the Cmax [12] was 1280 nM and the Tmax [12] was 6 h. For the same compound, the concentration at 1.167 h (human, plasma, oral, 1000 mg, Patient 21, Fed, sample time 1.167) was 17.3 nM, the concentration at 2 h [12] was 64.3 nM and the concentration at 4 h [12] was 102 nM. The concentration at 6 h [12] was 1280 nM, the concentration at 8.033 h [12] was 372 nM and the concentration at 24 h [12] was 49.3 nM. It also gave a concentration at 48.083 h [12] of 18.9 nM, an AUC(0-inf) [13] of 5.32 µM·h and an AUC(0-t) [13] of 5.03 µM·h. The Cmax [13] was 659 nM, the Tmax [13] was 3.09 h and the Vd/F [13] was 10100 L. The AUC(0-inf) [14] was 12.4 µM·h, the AUC(0-t) [14] was 12.1 µM·h and the Cmax [14] was 1400 nM. For the same compound, the Tmax [14] was 5.21 h, the Vd/F [14] was 3800 L and the “Cl F obs” value [15] was 861.6 L/h. For the same compound, the HL [15] was 9.9 h, the “Cl F obs” value [16] was 260.2 L/h and the HL [16] was 10.9 h. The “effect of food on drug levels” value (patient 21) was “negligible” and the “difference in mean drug levels between the dosing regimes (fed vs fasted)” value (previously (before extended cohort)) was “up to a four fold difference”.
